Reference: PubChem BioAssay (NCI)
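How tested: cells in 96-well plates exposed to compound for 48 hours at five concentrations. GI50 = concentration required for 50% inhibition of growth. At the TGI there is no net growth.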

Assays:
Experiment in all cases: inhibition of tumour cell growth, NCI panel, 48 h
[1] = tested on: 786-0 renal
[2] = tested on: A498 renal
[3] = tested on: A549 NSCLC
[4] = tested on: ACHN renal
[5] = tested on: BT-549 breast
[6] = tested on: CAKI-1 renal
[7] = tested on: CCRF-CEM leukemia
[8] = tested on: COLO 205 colon
[9] = tested on: DU-145 prostate
[10] = tested on: EKVX NSCLC
[11] = tested on: HCC-2998 colon
[12] = tested on: HCT-116 colon
[13] = tested on: HCT-15 colon
[14] = tested on: HL-60(TB) leukemia
[15] = tested on: HOP-62 NSCLC
[16] = tested on: HOP-92 NSCLC
[17] = tested on: HS 578T breast
[18] = tested on: HT29 colon
[19] = tested on: IGROV1 ovarian
[20] = tested on: K-562 leukemia
[21] = tested on: KM12 colon
[22] = tested on: LOX IMVI melanoma
[23] = tested on: M14 melanoma
[24] = tested on: MALME-3M melanoma
[25] = tested on: MCF7 breast
[26] = tested on: MDA-MB-231 breast
[27] = tested on: MDA-MB-435
[28] = tested on: MDA-MB-468 breast
[29] = tested on: MOLT-4 leukemia
[30] = tested on: NCI-H226 lung
[31] = tested on: NCI-H23 lung
[32] = tested on: NCI-H460 lung
[33] = tested on: NCI-H522 lung
[34] = tested on: OVCAR-3 ovarian
[35] = tested on: OVCAR-4 ovarian
[36] = tested on: OVCAR-5 ovarian
[37] = tested on: OVCAR-8 ovarian
[38] = tested on: PC-3 prostate
[39] = tested on: RPMI-8226 leukemia
[40] = tested on: RXF 393 renal
[41] = tested on: SF-268 CNS
[42] = tested on: SF-295 CNS
[43] = tested on: SF-539 CNS
[44] = tested on: SK-MEL-2 melanoma
[45] = tested on: SK-MEL-28 melanoma
[46] = tested on: SK-MEL-5 melanoma
[47] = tested on: SK-OV-3 ovarian
[48] = tested on: SN12C renal
[49] = tested on: SNB-19 CNS
[50] = tested on: SNB-75 CNS
[51] = tested on: SR leukemia
[52] = tested on: SW-620 colon
[53] = tested on: T-47D breast
[54] = tested on: TK-10 renal
[55] = tested on: U251 CNS
[56] = tested on: UACC-257 melanoma
[57] = tested on: UACC-62 melanoma
[58] = tested on: UO-31 renal

O=C(c1ccc(Cl)cc1)C1[C@H](c2ccccc2Br)[C@@H](c2ccccc2)NC12C(=O)Nc1ccc(Cl)cc12 (stereo partly specified)
GI50 [1]: 9.38 µM | TGI [1]: 18.8 µM | GI50 [2]: 9.4 µM | TGI [2]: 19.3 µM | GI50 [3]: 9.83 µM | TGI [3]: 20.2 µM | GI50 [4]: 9.94 µM | TGI [4]: 18.9 µM | GI50 [5]: 7.87 µM | TGI [5]: 15.7 µM | GI50 [6]: 8.96 µM | TGI [6]: 17.4 µM | GI50 [7]: 13.6 µM | TGI [7]: 35.1 µM | GI50 [8]: 9.34 µM | TGI [8]: 17.3 µM | GI50 [9]: 11.1 µM | TGI [9]: 22.4 µM | GI50 [10]: 10.6 µM | TGI [10]: 26 µM | GI50 [11]: 9.28 µM | TGI [11]: 17.4 µM | GI50 [12]: 9 µM | TGI [12]: 17.5 µM | GI50 [13]: 10.2 µM | TGI [13]: 20 µM | GI50 [14]: 13.2 µM | TGI [14]: 36.7 µM | GI50 [15]: 8.65 µM | TGI [15]: 16.4 µM | GI50 [16]: 8.37 µM | TGI [16]: 16.3 µM | GI50 [17]: 11 µM | TGI [17]: 27.1 µM | GI50 [18]: 9.35 µM | TGI [18]: 18.5 µM | GI50 [19]: 9.73 µM | TGI [19]: 19.1 µM | GI50 [20]: 18.5 µM | TGI [20]: 52.8 µM | GI50 [21]: 11.5 µM | TGI [21]: 25.2 µM | GI50 [22]: 9.69 µM | TGI [22]: 19 µM | GI50 [23]: 9.65 µM | TGI [23]: 18.3 µM | GI50 [24]: 8.67 µM | TGI [24]: 16 µM | GI50 [25]: 11.6 µM | TGI [25]: 27.9 µM | GI50 [26]: 8.98 µM | TGI [26]: 16.5 µM | GI50 [27]: 10.4 µM | TGI [27]: 20.7 µM | GI50 [28]: 9.09 µM | TGI [28]: 17.3 µM | GI50 [29]: 16 µM | TGI [29]: 52.8 µM | GI50 [30]: 8.69 µM | TGI [30]: 17.2 µM | GI50 [31]: 10.1 µM | TGI [31]: 19.4 µM | GI50 [32]: 9.54 µM | TGI [32]: 18.9 µM | GI50 [33]: 8.67 µM | TGI [33]: 16.6 µM | GI50 [34]: 10.6 µM | TGI [34]: 22.7 µM | GI50 [35]: 11.8 µM | TGI [35]: 28.5 µM | GI50 [36]: 8.61 µM | TGI [36]: 16 µM | GI50 [37]: 9.6 µM | TGI [37]: 18 µM | GI50 [38]: 9.87 µM | TGI [38]: 20.1 µM | GI50 [39]: 15.9 µM | TGI [39]: 48.8 µM | GI50 [40]: 8.4 µM | TGI [40]: 16 µM | GI50 [41]: 10.8 µM | TGI [41]: 25.4 µM | GI50 [42]: 9.14 µM | TGI [42]: 18.9 µM | GI50 [43]: 9.17 µM | TGI [43]: 17 µM | GI50 [44]: 9.22 µM | TGI [44]: 16.9 µM | GI50 [45]: 8.66 µM | TGI [45]: 16 µM | GI50 [46]: 9.44 µM | TGI [46]: 16.9 µM | GI50 [47]: 12.4 µM | TGI [47]: 34.4 µM | GI50 [48]: 9.05 µM | TGI [48]: 16.4 µM | GI50 [49]: 10.3 µM | TGI [49]: 23.6 µM | GI50 [50]: 8.31 µM | TGI [50]: 26.9 µM | GI50 [51]: 13.5 µM | TGI [51]: 32 µM | GI50 [52]: 9.58 µM | TGI [52]: 19.2 µM | GI50 [53]: 9.06 µM | TGI [53]: 18.2 µM | GI50 [54]: 8.71 µM | TGI [54]: 17 µM | GI50 [55]: 9.17 µM | TGI [55]: 16.8 µM | GI50 [56]: 8.88 µM | TGI [56]: 16.7 µM | GI50 [57]: 8.63 µM | TGI [57]: 16 µM | GI50 [58]: 8.01 µM | TGI [58]: 15.1 µM
